Patent publication US10975056B2 (GlaxoSmithKline Intellectual Property Development Limited, priority 2016, dated 2021)
Where “and” joins values, the source holds several entries; their conditions need not be identical. Equal entries are not always repeated. Structures can show the parent of a compound that is named as a salt. Where two headings read alike, the source gives them in different places.

Experiments:
[1] = test system: erythroid progenitor cells (EPCs); experiment: Fetal hemoglobin (HbF) ELISA in day 7 erythroid progenitor cells; format: cell-based, human; conditions: Homo sapiens, Erythroid progenitor cell, HbF ELISA, day 7 EPCs, 5 days; read-out: EPC ELISA (pEC50 category) (converted);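 further: for fetal hemoglobin induction normalized to vehicle-treated cells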
Method in brief: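 Day 7 EPCs from human bone marrow CD34+ cells were plated at 1,000 cells/well in media with 3 U/mL rhEPO. They were exposed to a 22-point dilution ([…]) for 5 days at 37 °C. Lysate HbF was measured by sandwich ELISA (OD450) and normalized to DMSO control wells.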

[2] = target: DNMT1 (Homo sapiens, UniProt P26358); experiment: DNMT1 biochemical activity, breaklight assay and/or SPA assay
[3] = binned activity in either the breaklight or the SPA assay
[4] = binned activity in either the breaklight or the SPA assay, read-out: DNMT1 BioChemical (pIC50 category) (converted)
[5] = breaklight assay and/or SPA assay, repeated experimental runs, read-out: average pIC50 against DNMT1 (converted)

DNMT1, sequence (P26358 whole entry, looked up): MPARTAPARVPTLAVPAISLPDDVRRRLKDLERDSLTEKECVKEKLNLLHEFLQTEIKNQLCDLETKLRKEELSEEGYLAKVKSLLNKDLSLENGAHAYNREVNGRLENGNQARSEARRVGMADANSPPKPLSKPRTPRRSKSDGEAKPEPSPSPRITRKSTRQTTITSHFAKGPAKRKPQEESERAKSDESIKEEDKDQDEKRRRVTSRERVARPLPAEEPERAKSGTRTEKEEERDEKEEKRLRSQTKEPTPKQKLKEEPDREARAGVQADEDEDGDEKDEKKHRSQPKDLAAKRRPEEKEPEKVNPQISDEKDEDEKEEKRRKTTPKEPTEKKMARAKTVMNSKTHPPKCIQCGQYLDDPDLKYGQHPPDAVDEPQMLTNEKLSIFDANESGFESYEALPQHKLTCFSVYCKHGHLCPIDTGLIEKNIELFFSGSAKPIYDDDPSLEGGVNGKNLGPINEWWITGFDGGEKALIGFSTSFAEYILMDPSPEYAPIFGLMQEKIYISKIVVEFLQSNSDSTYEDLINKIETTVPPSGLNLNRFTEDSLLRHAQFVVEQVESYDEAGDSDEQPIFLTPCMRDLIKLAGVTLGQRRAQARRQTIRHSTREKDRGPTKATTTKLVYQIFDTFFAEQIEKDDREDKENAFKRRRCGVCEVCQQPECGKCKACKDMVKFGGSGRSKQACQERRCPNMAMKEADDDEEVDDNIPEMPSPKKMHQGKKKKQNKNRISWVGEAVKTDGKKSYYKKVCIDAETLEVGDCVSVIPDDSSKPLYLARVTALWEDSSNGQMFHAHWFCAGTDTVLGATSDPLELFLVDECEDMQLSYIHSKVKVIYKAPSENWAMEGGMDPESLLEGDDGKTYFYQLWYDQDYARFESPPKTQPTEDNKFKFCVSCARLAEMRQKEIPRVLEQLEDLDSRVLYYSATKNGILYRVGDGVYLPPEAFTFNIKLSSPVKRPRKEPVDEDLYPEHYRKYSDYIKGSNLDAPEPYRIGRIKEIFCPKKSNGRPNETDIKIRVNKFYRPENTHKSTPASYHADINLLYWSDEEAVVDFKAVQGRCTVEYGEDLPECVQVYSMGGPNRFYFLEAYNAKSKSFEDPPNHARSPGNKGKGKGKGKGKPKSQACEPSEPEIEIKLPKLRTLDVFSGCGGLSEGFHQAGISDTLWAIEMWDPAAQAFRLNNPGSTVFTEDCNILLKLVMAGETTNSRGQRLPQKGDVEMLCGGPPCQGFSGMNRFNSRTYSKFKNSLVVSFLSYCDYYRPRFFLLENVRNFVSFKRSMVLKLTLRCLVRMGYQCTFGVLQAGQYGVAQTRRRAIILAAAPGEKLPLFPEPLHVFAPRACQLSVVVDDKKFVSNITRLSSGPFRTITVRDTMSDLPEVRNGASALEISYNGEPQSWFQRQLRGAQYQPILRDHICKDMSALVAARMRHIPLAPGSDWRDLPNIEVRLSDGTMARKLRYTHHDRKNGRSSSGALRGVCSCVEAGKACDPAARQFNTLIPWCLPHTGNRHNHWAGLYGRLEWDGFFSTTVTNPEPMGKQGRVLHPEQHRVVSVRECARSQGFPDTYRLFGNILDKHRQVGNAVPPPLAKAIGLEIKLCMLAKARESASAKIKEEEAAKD

| EC50 [1] [nM] | DNMT1 BioChemical (pIC50 category) [2, 3] | IC50 [2, 4] [nM] | SMILES | average pIC50 against DNMT1 ([2]; breaklight assay and/or SPA assay, repeated experimental runs, methanesulfonate 2,2,2-trifluoroacetate) | IC50 [2, 5] |
| --- | --- | --- | --- | --- | --- |
| 1000 to 31600 | D (Category D: ≥6.5) | – | N#Cc1c(SC(C(N)=O)c2ccccc2)nc(N2CCC(O)C2)c(C#N)c1C1CC1 (stereo not shown) [Example 369, 2-((3,5-Dicyano-4-cyclopropyl-6-(3-hydroxypyrrolidin-1-yl)pyridin-2-yl)thio)-2-phenylacetamide] | – | – |
| > 31600 | – | 316 to 1000 | CCc1c(C#N)c(SCc2ccc(NC(C)=O)c(F)c2)nc(N2CCCN(C)CC2)c1C#N [Example 362] | – | – |
| 1000 to 31600 | – | 316 to 1000 | CCc1c(C#N)c(SCc2ccc3c(c2)C(OC)(OC)C(=O)N3)nc(N2CCCN(C)CC2)c1C#N [Example 347, 2-(((3,3-Dimethoxy-2-oxoindolin-5-yl)methyl)thio)-4-ethyl-6-(4-methyl-1,4-diazepan-1-yl)pyridine-3,5-dicarbonitrile] | – | – |
| < 316 | D (Category D: ≥6.5) | – | CCc1c(C#N)c(SC(C(N)=O)c2ccccc2)nc(N(C)CC(=O)NOC)c1C#N (stereo not shown) [Example 663, 2-((6-((2-amino-2-oxo-1-phenylethyl)thio)-3,5-dicyano-4-ethylpyridin-2-yl)(methyl)amino)-N-methoxyacetamide] | – | – |
| > 31600 | – | 316 to 1000 | CCc1c(C#N)c(SCc2ccc3c(c2)OCO3)nc(N2CCCN(C)CC2)c1C#N [Example 346, 2-((Benzo[1,3]dioxol-5-ylmethyl)thio)-4-ethyl-6-(4-methyl-1,4-diazepan-1-yl)pyridine-3,5-dicarbonitrile] | – | – |
| 316 to 1000 | D (Category D: ≥6.5) | – | CCc1c(C#N)c(SC(C(N)=O)c2ccccc2)nc(N2CCC(N3CCOCC3)CC2)c1C#N (stereo not shown) [Example 503, 2-((3,5-dicyano-4-ethyl-6-(4-morpholinopiperidin-1-yl)pyridin-2-yl)thio)-2-phenylacetamide] | – | – |
| 1000 to 31600 | D (Category D: ≥6.5) | – | CCc1c(C#N)c(SC(C(N)=O)c2ccccc2)nc(N(C)CC(=O)N2C[C@@H](O)[C@H](O)C2)c1C#N (stereo partly drawn) [Example 653, 2-((3,5-dicyano-6-((2-((3R,4R)-3,4-dihydroxypyrrolidin-1-yl)-2-oxoethyl)(methyl)amino)-4-ethylpyridin-2-yl)thio)-2-phenylacetamide] | – | – |
| 316 to 1000 | – | 1000 to 31600 | CCc1c(C#N)c(SC(C(N)=O)c2cccc(N3CCCC3)c2)nc(N2CCCN(C)CC2)c1C#N (stereo not shown) [Example 247, 2-((3,5-Dicyano-4-ethyl-6-(4-methyl-1,4-diazepan-1-yl)pyridin-2-yl)thio)-2-(3-(pyrrolidin-1-yl)phenyl)acetamide] | – | ≥ 1000 nM and 1580 nM |
| < 316 | D (Category D: ≥6.5) | – | CCc1c(C#N)c(SCc2ccc(N(C)S(C)(=O)=O)cc2)nc(N(C)CCN(C)C)c1C#N [Example 482, N-(4-(((3,5-dicyano-6-((2-(dimethylamino)ethyl)(methyl)amino)-4-ethylpyridin-2-yl)thio)methyl)phenyl)-N-methylmethanesulfonamide] | – | – |
| < 316 | D (Category D: ≥6.5) | – | CCc1c(C#N)c(SC(C(N)=O)c2ccccc2)nc(N2CC[C@H](N)C2)c1C#N (stereo partly drawn) [Example 528, 2-((6-((S)-3-aminopyrrolidin-1-yl)-3,5-dicyano-4-ethylpyridin-2-yl)thio)-2-phenylacetamide] | – | – |
| < 316 | D (Category D: ≥6.5) | – | CCc1c(C#N)c(SCc2ccc(N(C)S(C)(=O)=O)cc2)nc(N(C)CCNC2(C)CC2)c1C#N [Example 481, N-(4-(((3,5-dicyano-4-ethyl-6-(methyl(2-((1-methylcyclopropyl)amino)ethyl)amino)pyridin-2-yl)thio)methyl)phenyl)-N-methylmethanesulfonamide] | – | – |
| < 316 | D (Category D: ≥6.5) | – | CCc1c(C#N)c(SC(C(N)=O)c2ccccc2)nc(N2CCC(NCC(F)F)CC2)c1C#N (stereo not shown) [Example 554, 2-((3,5-dicyano-6-(4-((2,2-difluoroethyl)amino)piperidin-1-yl)-4-ethylpyridin-2-yl)thio)-2-phenylacetamide] | – | – |
| > 31600 | – | 316 to 1000 | CCc1nc(SC(C(N)=O)c2ccccc2)c(C#N)c(CC)c1C#N (stereo not shown) [Example 351] | – | – |
| 1000 to 31600 | D (Category D: ≥6.5) | – | N#Cc1c(SC(C(N)=O)c2ccccc2)nc(N2CC(NC(=O)CN)C2)c(C#N)c1C1CC1 (stereo not shown) [Example 610, 2-amino-N-(1-(6-((2-amino-2-oxo-1-phenylethyl)thio)-3,5-dicyano-4-cyclopropylpyridin-2-yl)azetidin-3-yl)acetamide] | – | – |
| 1000 to 31600 | – | 316 to 1000 | CCc1c(C#N)c(SC(C(N)=O)c2ccccc2)nc(N2CCN(Cc3ccc[nH]3)CC2)c1C#N (stereo not shown) [Example 177, 2-((6-(4-((1H-Pyrrol-2-yl)methyl)piperazin-1-yl)-3,5-dicyano-4-ethylpyridin-2-yl)thio)-2-phenylacetamide] | – | – |
| 1000 to 31600 | – | 316 to 1000 | CCc1c(C#N)c(SC(C(N)=O)c2ccccc2)nc(N2C[C@@H](O)[C@@H](O)C2)c1C#N (stereo partly drawn) [Example 219, 2-((3,5-Dicyano-6-((3S,4R)-3,4-dihydroxypyrrolidin-1-yl)-4-ethylpyridin-2-yl)thio)-2-phenylacetamide] | – | – |
| 1000 to 31600 | – | 1000 to 31600 | CCc1c(C#N)c(SC(C(N)=O)c2ccccc2)nc(N2CCC(N)(C(N)=O)CC2)c1C#N (stereo not shown) [Example 251] | – | – |
| 1000 to 31600 | – | 316 to 1000 | CCc1c(C#N)c(S[C@@H](C(N)=O)c2ccccc2)nc(N2CCOCC2)c1C#N [Example 65, (R)-2-[(3,5-Dicyano-4-ethyl-6-morpholino-2-pyridyl)sulfanyl]-2-phenyl-acetamide] | – | – |
| 1000 to 31600 | – | 316 to 1000 | CCc1c(C#N)c(SC(C(N)=O)c2ccccc2)nc(N2CCc3[nH]nnc3C2)c1C#N (stereo not shown) [Example 359, 2-((3,5-Dicyano-6-(6,7-dihydro-1H-[1,2,3]triazolo[4,5-c]pyridin-5(4H)-yl)-4-ethylpyridin-2-yl)thio)-2-phenylacetamide] | – | – |
| 316 to 1000 | – | 316 to 1000 | CCc1c(C#N)c(SC(C(N)=O)c2ccccc2)nc(N2CCN(Cc3cncs3)CC2)c1C#N (stereo not shown) [Example 195, 2-((3,5-Dicyano-4-ethyl-6-(4-(thiazol-5-ylmethyl)piperazin-1-yl)pyridin-2-yl)thio)-2-phenylacetamide] | – | – |
| 1000 to 31600 | D (Category D: ≥6.5) | – | CCc1c(C#N)c(SC(C(N)=O)c2ccccc2)nc(N2CCO[C@@H](CNC(=O)CN)C2)c1C#N (stereo partly drawn) [Example 598, 2-amino-N-(((2S)-4-(6-((2-amino-2-oxo-1-phenylethyl)thio)-3,5-dicyano-4-ethylpyridin-2-yl)morpholin-2-yl)methyl)acetamide] | – | – |
| 1000 to 31600 | D (Category D: ≥6.5) | – | CCc1c(C#N)c(SC(C(N)=O)c2ccccc2)nc(N2CC[C@@](F)(CN)C2)c1C#N (stereo partly drawn) [Example 632, 2-((6-((R)-3-(aminomethyl)-3-fluoropyrrolidin-1-yl)-3,5-dicyano-4-ethylpyridin-2-yl)thio)-2-phenylacetamide] | – | – |
| 316 to 1000 | – | 316 to 1000 | CCc1c(C#N)c(SC(C(N)=O)c2cc(C)ccn2)nc(N2CCCN(C)CC2)c1C#N (stereo not shown) [Example 208] | – | – |
| < 316 | – | 316 to 1000 | CCc1c(C#N)c(SC(C(N)=O)c2ccc(F)cn2)nc(N2CCC(N3CCCC3)CC2)c1C#N (stereo not shown) [Example 211, 2-((3,5-Dicyano-4-ethyl-6-(4-(pyrrolidin-1-yl)piperidin-1-yl)pyridin-2-yl)thio)-2-(5-fluoropyridin-2-yl)acetamide, Formic Acid Salt] | – | – |
| < 316 | D (Category D: ≥6.5) | – | CCc1c(C#N)c(SCc2ccc(N(C)S(C)(=O)=O)cc2)nc(N2CCOC(CN3CCCC3)C2)c1C#N (stereo not shown) [Example 574, N-(4-(((3,5-dicyano-4-ethyl-6-(2-(pyrrolidin-1-ylmethyl)morpholino)pyridin-2-yl)thio)methyl)phenyl)-N-methylmethanesulfonamide] | – | – |
| 316 to 1000 | D (Category D: ≥6.5) | – | CCc1c(C#N)c(SC(C(N)=O)c2ccc(F)cc2)nc(N2CC[C@H](O)C2)c1C#N (stereo partly drawn) [Example 427, 2-((3,5-dicyano-4-ethyl-6-((S)-3-hydroxypyrrolidin-1-yl)pyridin-2-yl)thio)-2-(4-fluorophenyl) acetamide] | – | – |
| < 316 | D (Category D: ≥6.5) | – | CCc1c(C#N)c(SCc2ccc(N(C)S(C)(=O)=O)cc2)nc(N(C)CCN(CC)CC)c1C#N [Example 579, N-(4-(((3,5-dicyano-6-((2-(diethylamino)ethyl)(methyl)amino)-4-ethylpyridin-2-yl)thio)methyl)phenyl)-N-methylmethanesulfonamide] | – | – |

| SMILES | EC50 [1] [nM] | DNMT1 BioChemical (pIC50 category) [2, 3] | IC50 [2, 4] [nM] | average pIC50 against DNMT1 ([2]; breaklight assay and/or SPA assay, repeated experimental runs, methanesulfonate 2,2,2-trifluoroacetate) | IC50 [2, 5] |
| --- | --- | --- | --- | --- | --- |
| CCc1c(C#N)c(SCc2ccc(OS(C)(=O)=O)cc2)nc(N2CCC(N)CC2)c1C#N [Example 626, 4-(((6-(4-aminopiperidin-1-yl)-3,5-dicyano-4-ethylpyridin-2-yl)thio)methyl)phenyl methanesulfonate 2,2,2-trifluoroacetate] | < 316 | D (Category D: ≥6.5) | – | > 6.5 | 200 nM |
| CN(CCN)c1nc(SC(C(N)=O)c2ccccc2)c(C#N)c(C2CC2)c1C#N (stereo not shown) [Example 373, 2-((6-((2-Aminoethyl)(methyl)amino)-3,5-dicyano-4-cyclopropylpyridin-2-yl)thio)-2-phenylacetamide, Hydrochloride] | 316 to 1000 | D (Category D: ≥6.5) | – | – | – |
